Laboratory results published in patent US11414429B2, “Compound or pharmaceutically acceptable salt thereof” (RIKEN, priority 2016, dated 2022).

Assays:
tankyrase 2 (TNKS 2) = target: T1, tankyrase 2 (TNKS 2) (Homo sapiens, UniProt Q9H2K2); experiment: Tankyrase inhibitory activity test (ELISA, self-polyADP ribosylation), tankyrase 2; type: biochemical; conditions: ELISA, self-polyADP ribosylation; class symbols; read-out: TNKS2 (inhibitory activity against tankyrase 2, IC50 value)
T1 construct: 613-1, 116aa; made in house; host or cells: cell-free protein synthesis system
How it was run: (§1)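 IC50 was fitted to residual self-polyADP-ribosylation activity, detected by HRP-streptavidin chemiluminescence. Plate-bound Flag fusions (TNKS1 1,024-1,327aa SAM+PARP; TNKS2 613-1,116aa ANK5+SAM+PARP, cell-free synthesized) saw compound for 10 min at room temperature in 50 mM Tris-HCl pH 8.0, 4 mM MgCl2, 0.2 mM DTT. Reaction with 225 μM NAD/25 μM 6-biotin-17-NAD solution ran 45 min at 30 °C.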

tankyrase 1 (TNKS 1) = target: T2, tankyrase 1 (TNKS 1) (Homo sapiens, UniProt O95271); experiment: Tankyrase inhibitory activity test (ELISA, self-polyADP ribosylation), tankyrase 1; type: biochemical; conditions: ELISA, self-polyADP ribosylation; class symbols; read-out: TNKS1 (inhibitory activity against tankyrase 1, IC50 value)
T2 construct: 1,024-1,327aa; made in house; host or cells: cell-free protein synthesis system
How it was run: as §1

[1] = tested on: human colorectal cancer cell line, COLO-320DM; experiment: Cell proliferation inhibitory activity test (Celltiter-Glo Luminescent Cell Viability Assay); type: cell-based; conditions: COLO-320DM cells, 96 hours, class symbols, read-out: COLO-320 DM (cell proliferation inhibitory activity, GI50 value)
How it was run: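 GI50 is taken as the concentration halving cell growth versus 1% DMSO control, measured by ATP luminescence. Compound exposure lasted 96 h at 37° C. under 5% CO2, after overnight seeding in RPMI-1640 with 10% FBS and 2 mM glutamine.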

T2 sequence (O95271 1024-1327): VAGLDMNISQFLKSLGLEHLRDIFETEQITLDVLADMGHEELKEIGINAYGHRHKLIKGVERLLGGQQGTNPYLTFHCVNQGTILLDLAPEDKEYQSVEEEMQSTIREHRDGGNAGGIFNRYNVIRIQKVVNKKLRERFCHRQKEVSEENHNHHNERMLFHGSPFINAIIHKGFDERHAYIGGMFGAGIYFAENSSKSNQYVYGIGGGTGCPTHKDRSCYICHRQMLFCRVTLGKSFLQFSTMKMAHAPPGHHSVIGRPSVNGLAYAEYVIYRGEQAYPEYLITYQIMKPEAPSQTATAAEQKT
T1 sequence (Q9H2K2 613-1166): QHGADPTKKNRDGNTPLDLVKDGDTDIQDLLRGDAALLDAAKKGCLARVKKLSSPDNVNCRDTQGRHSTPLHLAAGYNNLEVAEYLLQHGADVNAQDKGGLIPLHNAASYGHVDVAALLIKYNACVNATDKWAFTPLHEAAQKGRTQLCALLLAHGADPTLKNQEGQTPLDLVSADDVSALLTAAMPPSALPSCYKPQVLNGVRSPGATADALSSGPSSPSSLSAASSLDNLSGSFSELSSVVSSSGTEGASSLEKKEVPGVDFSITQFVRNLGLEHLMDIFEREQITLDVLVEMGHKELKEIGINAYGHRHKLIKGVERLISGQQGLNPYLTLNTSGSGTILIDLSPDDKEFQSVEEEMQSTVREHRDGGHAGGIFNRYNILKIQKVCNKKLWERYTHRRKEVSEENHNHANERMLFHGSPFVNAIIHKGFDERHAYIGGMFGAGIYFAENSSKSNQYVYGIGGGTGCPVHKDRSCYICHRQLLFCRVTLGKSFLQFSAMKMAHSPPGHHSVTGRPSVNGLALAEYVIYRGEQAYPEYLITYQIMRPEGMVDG

IC50 (tankyrase 2 (TNKS 2))	IC50 (tankyrase 1 (TNKS 1))	GI50 [1]	SMILES
< 20 nM	< 20 nM	< 100 nM	CN1CCCc2c1nc(N1CCC3(CC1)C(=O)N(C)c1cc(N4CCN(S(C)(=O)=O)CC4)cc(F)c13)[nH]c2=O [Example 461, 4-fluoro-1-methyl-1′-(8-methyl-4-oxo-3,4,5,6,7,8-hexahydropyrido[2,3-d]pyrimidin-2-yl)-6-(4-methylsulfonylpiperazin-1-yl)spiro[indole-3,4′-piperidine]-2(1H)-one]
< 20 nM	20 to 200 nM	< 100 nM	COC(=O)N1CCN(c2cc(F)c3c(c2)N(C)C(=O)C32CCN(c3nc4c(c(=O)[nH]3)CCCN4C)CC2)CC1 [Example 462, methyl 4-[4-fluoro-1-methyl-1′-(8-methyl-4-oxo-3,4,5,6,7,8-hexahydropyrido[2,3-d]pyrimidin-2-yl)-2-oxospiro[indole-3,4′-piperidine]-6-yl]piperazine-1-carboxylate]
< 20 nM	< 20 nM	100 to 600 nM	CN1CCCc2c1nc(N1CCC3(CC1)C(=O)N(C)c1cc(N4CCC(S(C)(=O)=O)CC4)cc(F)c13)[nH]c2=O [Example 464, 4-fluoro-1-methyl-1′-(8-methyl-4-oxo-3,4,5,6,7,8-hexahydropyrido[2,3-d]pyrimidin-2-yl)l-6-(4-methylsulfonylpiperidin-1-yl)spiro[indole-3,4′-piperidine]-2(1H)-one]
< 20 nM	20 to 200 nM	< 100 nM	COC1CCN(c2cc(F)c3c(c2)N(C)C(=O)C32CCN(c3nc4c(c(=O)[nH]3)CCCN4C)CC2)CC1 [Example 465, 4-fluoro-6-(4-methoxypiperidin-1-yl)-1-methyl-1′-(8-methyl-4-oxo-3,4,5,6,7,8-hexahydropyrido[2,3-d]pyrimidin-2-yl)spiro[indole-3,4′-piperidine]-2(1H)-one]
< 20 nM	20 to 200 nM	600 to 1000 nM	CN1CCCc2c1nc(N1CCC3(CC1)C(=O)N(C)c1cc(N4CCN(C(N)=O)CC4)cc(F)c13)[nH]c2=O [Example 466, 4-[4-fluoro-1-methyl-1′-(8-methyl-4-oxo-3,4,5,6,7,8-hexahydropyrido[2,3-d]pyrimidin-2-yl)-2-oxospiro[indole-3,4′-piperidine]-6-yl]piperazine-1-carboxamide]
< 20 nM	20 to 200 nM	< 100 nM	CN1CCCc2c1nc(N1CCC3(CC1)C(=O)N(C)c1cc(N4CCC(C#N)CC4)cc(F)c13)[nH]c2=O [Example 467, 1-[4-fluoro-1-methyl-1′-(8-methyl-4-oxo-3,4,5,6,7,8-hexahydropyrido[2,3-]pyrimidin-2-yl)-2-oxospiro[indole-3,4′-piperidine]-6-yl]piperidine-4-carbonitrile]

Continued, compound first:

SMILES	IC50 (tankyrase 2 (TNKS 2))	IC50 (tankyrase 1 (TNKS 1))	GI50 [1]
CN1CCCc2c1nc(N1CCC3(CC1)C(=O)N(C)c1cc(N4CCN(C(=O)CO)CC4)cc(F)c13)[nH]c2=O [Example 460, 4-fluoro-6-[4-(2-hydroxyacetyl)piperazin-1-yl]-1-meth-yl-1′-(8-methyl-4-oxo-3,4,5,6,7,8-hexahydropyrido [2,3-d]pyrimidin-2-yl)spiro[indole-3,4′-piperidine]-2-one]	< 20 nM	< 20 nM	100 to 600 nM
C[C@@H]1CN(c2cc(F)c3c(c2)N(C)C(=O)C32CCN(c3nc4c(c(=O)[nH]3)CCCN4C)CC2)C[C@H](C)O1 [Example 463, 6-[cis-2,6-dimethylmorpholin-4-yl]-4-fluoro-1′-(8-methyl-4-oxo-3,4,5,6,7,8-hexahydropyrido[2,3-d]pyrimidin-2-yl)-1-methyl-spiro[indole-3,4′-piperidine]-2(1H)-one]	< 20 nM	< 20 nM	< 100 nM
O=C1N(CC2CCCO2)c2cccc(F)c2C12CCN(c1nc3c(c(=O)[nH]1)CCCN3)CC2 (stereo not drawn) [Example 469, 4-fluoro-1′-(4-hydroxy-5,6,7,8-tetrahydroypyrido[2,3-d]pyrimidin-2-yl)-1-(oxolan-2-ylmethyl)spiro[indole-3,4′-piperidine]-2-one]	< 20 nM	20 to 200 nM	100 to 600 nM
COCCN1C(=O)C2(CCN(c3nc4c(c(=O)[nH]3)CCCN4)CC2)c2c(F)cccc21 [Example 470, 4-fluoro-1′-(4-hydroxy-5,6,7,8-tetrahydroxypyrido[2,3-d]pyrimidin-2-yl)-1-(2-methoxyethyl)spiro[indole-3,4′-piperidin]-2-one]	< 20 nM	< 20 nM	100 to 600 nM
O=C1OC2(CCN(c3nc4c(c(=O)[nH]3)CCCN4)CC2)c2c(F)cc(N3CCOCC3)cc21 [Example 471, 7-fluoro-1′-(4-hydroxy-6,7-dihydro-5H-pyrido[2,3-d]pyrimidin-2-yl)-6-morpholino-4-ylspiro[2-benzofuran-3,4′-piperidin]-1-one]	< 20 nM	< 20 nM	600 to 1000 nM
CC1CN(c2cc(F)c3c(c2)C(=O)OC32CCN(c3nc4c(c(=O)[nH]3)CCCN4)CC2)CC(C)O1 (stereo not drawn) [Example 472, 6-(2,6-dimethylmorpholin-4-yl)-4-fluoro-1′-(4-hydroxy-5,6,7,8-tetrahydropyrido[2,3-d]pyrimidin-2-yl) spiro[2-benzofuran-3,4′-piperidin]-1-one]	< 20 nM	< 20 nM	600 to 1000 nM
COc1ccc(F)c2c1N(CC(C)(C)O)CC21CCN(c2nc3c(c(=O)[nH]2)CCCN3)CC1 [Example 473, 2-(4-fluoro-1-(2-hydroxy-2-methylpropyl)-7-methoxyspiro[indoline-3,4′-piperidin]-1′-yl)-5,6,7,8-tetrahydropyeido[2,3-d]pyrimidin-4(3H)-one]	< 20 nM	20 to 200 nM	600 to 1000 nM
COc1ccc(F)c2c1NCC21CCN(c2nc3c(c(=O)[nH]2)CCCN3)CC1 [Example 474, 2-(4-fluoro-7-methoxyspiro[indoline-3,4′-piperidin]-1′-yl)-5,6,7,8-tetrahydropyrido[2,3-d]pyrimidin-4(3H)-one]	< 20 nM	< 20 nM	100 to 600 nM
